What all share (type): cell-based
The test system of assay [1] is HIV-1III B. Kind of assay: HIV-1 P24 output, test solution mixed with virus, PBMCs infected overnight. The settings on record: day 9. As to the method:
Example 4-Specificity of Inhibition: Research grade purified d-Galactose (CAT# g404, lot 117H00431, FW 180.2, Sigma Chemical Co., St. Louis, MO) was dissolved in saline at a concentration of 5mg/ml. The solution was allowed to stand at room temperature for 15 minutes and mixed by vortex until the galactose was completely dissolved. The galactose solution was divided into two equal aliquots. Stabilizing solution (0.1 ml) was added to one aliquot, then vortexed and incubated at room temperature for 30 minutes. After mixing again, the mixture was centrifuged at 1500g for 30 minutes and the supernatant was filtered through a 0.2µm filter and transferred to a sterile 15 ml tube. The solution was sterilized by gamma radiation (2.5 mega RADs) with 15 minutes exposure. The aliquot without the stabilizing solution was labeled "1A" and the aliquot containing the stabilized solution was labeled "1B". […] Each of the test solutions were diluted 1:20 1:40,1:80, and 1:160 in saline. Control solutions were water.
One ml of each of the dilutions of the test solution or control was mixed with an equal volume of HIV-1III B (~50 TCID50 /2x10^5 cells) to infect activated human PBMCs overnight at 37°C (3x10^5 cells/dilution). HIV-1III B is a laboratory-adapted strain. The cells then were washed and placed in culture media containing the indicated dilution of the test solution in triplicate wells (1x10^3 cells per well, ½ medium changes with media containing the indicated dilutions of test solution were made at ~3 day intervals). The conditioned media were tested for HIV-1 P24 output on day 9 using the DuPont P24 assay kit. The control was infected PBMCs in the absence of test solutions. Results are shown in Table 9 and are measured as the Inhibition% of the control. […]

Assay [2] has as its system HIV-1III B. Described as above. As to conditions: Dilution 1:10 of 5mg/ml solution, day 9.
Assay [3] deals with HIV-1 IIIB. Kind of assay: HIV-1 P24 output, test solutions added post infection. The procedure: In addition, a similar experiment was performed, except that test solutions were added post infection, at the time of plating into the triplicate wells.
The subject of assay [4] is HIV-1 IIIB. Kind of assay: HIV-1 P24 output, repeat with stored solutions, 3 hours infection. As to conditions: day 6. As to the method:
The test was repeated using test solutions stored at 4°C. In this experiment, the dilutions were mixed with HIV-1 IIIB virus at the time of infecting the activated human PBMCs for 3 hours. The cells then were washed and incubated in triplicate wells (1x10^3 cells/well) in the presence of the indicated dilution of the test solution. One half media changes included the test solution dilutions. Conditioned media were tested for P24 output by the antigen capture assay on day 6. Results are shown in Table 10 and are presented as the inhibition % of control (no carbohydrate added).

For a further assay, the system named is X4 strain LAI/IIIB. Kind of assay: RT activity in infected PBMCs over 20 days post-infection. The procedure:
Reverse Transcriptase Activity Assay: A microtiter based reverse transcriptase (RT) reaction was utilized as described by Buckheit et al., (1991), AIDS Research and Human Retroviruses, 7:295-302. Tritiated thymidine triphosphate (^3H-TTP) was suspended in distilled H2O at 5 Ci/mL. Poly rA and oligo dT were prepared as a stock solution which was kept at -20°C. RT reaction buffer was prepared fresh on a daily basis and contained 125 µL 1M EGTA, 125 µL dH2O, 110 µL 10% SDS, 50 µL 1M Tris (pH 7.4), 50 µL 1M DTT, and 40 µL 1M MgCl2. These three solutions were mixed together in a ratio of 2 parts ^3H-TTP, 1 part poly rA:oligo dT, and 1 part reaction buffer. Ten microliters of this reaction mixture were placed in a round bottom microtiter plate and 15 µL of virus containing supernatant were added and mixed. The plate was incubated at 37°C in a water bath with a solid support to prevent submersion of the plate and incubated for 60 minutes. After the incubation period, the reaction volume was spotted onto pieces of DE81 paper, washed 5 times for 5 minutes each in a 5% sodium phosphate buffer, 2 times for 1 minute each in distilled water, 2 times for 1 minute each in 70% ethanol, and then dried. Opti-Fluor-O (Packard) was added to each sample and incorporated radioactivity was quantified utilizing a Wallac 1450 MicroBeta Plus liquid scintillation counter. Plates were screened with tetrazolium dye staining as described above.
PBMCs were treated with dilutions of LUKOR of 1:4, 1:20, 1:100, 1:500, or 1:2500, or concentrations ofN-glycolylneuraminic acid or N-acetylneuraminic acid of 0.4, 1.2, 3.6, 11, or 33µg/ml. No carbohydrates were added to the control sample. RT activity was determined at 3, 6, 9,13, 17, and 20 days post-infection (PI) with X4 strain LAI/IIIB.

The mark [5] stands for this setting: Dilution 1:10, added post infection.
Where [6] appears, read: Dilution 1:20, added post infection.
The mark [7] stands for this setting: Dilution 1:20, repeat with further dilutions (Table 12).
[8] abbreviates: Dilution 1:40, added post infection.
The mark [9] stands for this setting: Dilution 1:80, added post infection.
Setting [10] is: Dilution 1:100, repeat with further dilutions (Table 12).
Setting [11] is: Dilution 1:160, added post infection.
[12] abbreviates: Dilution 1:1000, repeat with further dilutions (Table 12).
[13] abbreviates: Dilution 1:10, solutions stored at 4°C.
Setting [14] is: Dilution 1:20, solutions stored at 4°C.
The mark [15] stands for this setting: Dilution 1:40, solutions stored at 4°C.
Setting [16] is: Dilution 1:80, solutions stored at 4°C.
The mark [17] stands for this setting: Dilution 1:160, solutions stored at 4°C.

Regarding `O=C(CO)N[C@H]1[C@H]([C@H](O)[C@H](O)CO)OC(O)(C(=O)O)C[C@@H]1O` (single isomer, unassigned) [2A, N-glycolylneuraminic acid], the “P24 output, Inhibition% of the control” value turned out to be 78% in the assay with HIV-1III B [1] (Dilution 1:20) and 66% in the assay with HIV-1III B [1] (Dilution 1:40). Further, the inhibition at 5000 µg/mL (stock) in the assay with HIV-1III B [2] (Human immunodeficiency virus 1, PBMC, 216 h, read-out: P24 output, Inhibition% of the control) is 94%. Moreover, the “Inhibition % of Control” value with HIV-1 IIIB [3] (setting [5]) came out at 95%; in the assay with HIV-1 IIIB [3] (setting [6]), 75%; in the assay with HIV-1 IIIB [3] (setting [7]), 88%; in the assay on HIV-1 IIIB [3] (setting [8]), 66%; in the assay with HIV-1 IIIB [3] (setting [9]), 30%; with HIV-1 IIIB [3] (setting [10]), 55%. For the same compound, the “Inhibition % of Control” value was 16% in the assay on HIV-1 IIIB [3] (setting [11]); 7% with HIV-1 IIIB [3] (setting [12]); 96% in the assay with HIV-1 IIIB [4] (setting [13]); 78% in the assay with HIV-1 IIIB [4] (setting [14]); 62% in the assay on HIV-1 IIIB [4] (setting [15]); 47% in the assay with HIV-1 IIIB [4] (setting [16]). In addition, the “Inhibition % of Control” value with HIV-1 IIIB [4] (setting [17]) is 17%.

As to `O=C(CO)N[C@H]1[C@H]([C@H](O)[C@H](O)CO)OC(O)(C(=O)O)C[C@@H]1O` (single isomer, unassigned) [2B, N-glycolylneuraminic acid], the “P24 output, Inhibition% of the control” value is given as 81% with HIV-1III B [1] (Dilution 1:20); 61% in the assay with HIV-1III B [1] (Dilution 1:40); 37% in the assay on HIV-1III B [1] (Dilution 1:80); 16% in the assay on HIV-1III B [1] (Dilution 1:160); 93% in the assay on HIV-1III B [2]. The “Inhibition % of Control” value with HIV-1 IIIB [3] (setting [5]) turned out to be 82%; with HIV-1 IIIB [3] (setting [6]), 70%; in the assay on HIV-1 IIIB [3] (setting [7]) it was 78%; in the assay with HIV-1 IIIB [3] (setting [8]), 61%; in the assay with HIV-1 IIIB [3] (setting [9]), 26%; with HIV-1 IIIB [3] (setting [10]), 42%. In addition, the “Inhibition % of Control” value in the assay on HIV-1 IIIB [3] (setting [11]) came to 15%; in the assay on HIV-1 IIIB [3] (setting [12]), 1%; in the assay with HIV-1 IIIB [4] (setting [13]) it was 88%; with HIV-1 IIIB [4] (setting [14]), 74%; in the assay on HIV-1 IIIB [4] (setting [15]) it was 59%; in the assay on HIV-1 IIIB [4] (setting [16]), 44%. Also, the “Inhibition % of Control” value in the assay with HIV-1 IIIB [4] (setting [17]) is 13%.

Turning to `OC[C@H]1O[C@H](O[C@H]2[C@@H](O)[C@@H](CO)OC(O)[C@@H]2O)[C@H](O)[C@@H](O)[C@H]1O` (stereo partly drawn) [3AA, galactose-α 1,3-galactose], the “P24 output, Inhibition% of the control” value in the assay with HIV-1III B [1] (Dilution 1:20) was 3.6%; with HIV-1III B [1] (Dilution 1:40) it was 2.2%; in the assay with HIV-1III B [1] (Dilution 1:80), 1.4%; in the assay with HIV-1III B [1] (Dilution 1:160), 0.4%; in the assay with HIV-1III B [2], 4.3%.

As to `CC(=O)N[C@H]1[C@H]([C@H](O)[C@H](O)CO)OC(O)(C(=O)O)C[C@@H]1O` (some centres unmarked) [N-acetylneuraminic acid, reference compound], the “RT Activity” value with X4 strain LAI/IIIB (0.4 µg/ml, 3 days PI) turned out to be 89; with X4 strain LAI/IIIB (0.4 µg/ml, 6 days PI) it was 129; in the assay with X4 strain LAI/IIIB (0.4 µg/ml, 9 days PI), 878; with X4 strain LAI/IIIB (0.4 µg/ml, 13 days PI), 2703; in the assay with X4 strain LAI/IIIB (0.4 µg/ml, 17 days PI) it was 1615; with X4 strain LAI/IIIB (0.4 µg/ml, 20 days PI), 812. Further, the “RT Activity” value was found to be 83 in the assay on X4 strain LAI/IIIB (3.6 µg/ml, 3 days PI); 508 in the assay with X4 strain LAI/IIIB (3.6 µg/ml, 6 days PI); 1902 in the assay with X4 strain LAI/IIIB (3.6 µg/ml, 9 days PI); 1892 in the assay with X4 strain LAI/IIIB (3.6 µg/ml, 13 days PI); 1260 in the assay on X4 strain LAI/IIIB (3.6 µg/ml, 17 days PI); 836 in the assay with X4 strain LAI/IIIB (3.6 µg/ml, 20 days PI). Moreover, the “RT Activity” value in the assay on X4 strain LAI/IIIB (11 µg/ml, 3 days PI) was 43; with X4 strain LAI/IIIB (11 µg/ml, 6 days PI), 75; in the assay with X4 strain LAI/IIIB (11 µg/ml, 9 days PI) it was 799; in the assay with X4 strain LAI/IIIB (11 µg/ml, 13 days PI), 2047; in the assay with X4 strain LAI/IIIB (11 µg/ml, 17 days PI), 2990; in the assay on X4 strain LAI/IIIB (11 µg/ml, 20 days PI) it was 1171. In addition, the “RT Activity” value in the assay on X4 strain LAI/IIIB (33 µg/ml, 3 days PI) came out at 36; in the assay on X4 strain LAI/IIIB (33 µg/ml, 6 days PI) it was 53; in the assay with X4 strain LAI/IIIB (33 µg/ml, 9 days PI) it was 165; with X4 strain LAI/IIIB (33 µg/ml, 13 days PI) it was 442; with X4 strain LAI/IIIB (33 µg/ml, 17 days PI) it was 1273; in the assay with X4 strain LAI/IIIB (33 µg/ml, 20 days PI), 1526. In addition, the “RT activity in treated cells (summary in words)” value with X4 strain LAI/IIIB (all dilutions/concentrations, 3-20 days PI) is “decreased RT activity was observed only with high concentrations”.

Consider d-Galactose [1A], for which the “P24 output, Inhibition% of the control” value in the assay with HIV-1III B [1] (Dilution 1:20) was 5%; in the assay with HIV-1III B [1] (Dilution 1:40), 4%; in the assay on HIV-1III B [1] (Dilution 1:80) it was 2%; in the assay on HIV-1III B [1] (Dilution 1:160) it was 2%; in the assay with HIV-1III B [2], 4%.

For d-Galactose [1B], the “P24 output, Inhibition% of the control” value amounted to 5% in the assay on HIV-1III B [1] (Dilution 1:20); 3% in the assay with HIV-1III B [1] (Dilution 1:40); 4% with HIV-1III B [1] (Dilution 1:80); 2% in the assay on HIV-1III B [1] (Dilution 1:160); 7% with HIV-1III B [2].

Values taken from patent EP1143981B1, “USE OF N-GLYCOLNEURAMINIC ACID AND ITS DERIVATIVES FOR THE MANUFACTURE OF A MEDICAMENT FOR THE TREATMENT OF HIV INFECTIONS” (Glukor, Inc., priority 1998, dated 2000).
